How the values were obtained:
[1] = target: human IgG (Homo sapiens, UniProt P01857); assay: SPR affinity analysis of IgG-binding peptides on immobilized IgG (BIAcore T200); design: kd: unit not given here; settings: for ka / kd: SPR, peptides N-terminally blocked with biotinylated PEG4, NHS group hydrolysed
Method: 0.4 M EDC (1-ethyl-3-(3-dimethylaminopropyl)-carbodiimide) and 0.1 M sulfo-NHS (sulfo-N-hydroxysuccinimide) were mixed in equal amounts and then injected onto a CMS sensor chip loaded in BIAcore T200 (GE Healthcare Japan Corp.) for 7 minutes at a flow rate of […] to activate the sensor chip. IgG was immobilized thereonto in an amount of 4000 to 5000 in terms of RU value under conditions of pH 4.0 (10 mM sodium acetate). While a HBS-EP buffer solution (0.01 M HEPES, 0.15 M NaCl, 0.005% Tween 20, and 3 mM EDTA, pH 7.0) was used, binding reaction was monitored by the injection of the peptide at a concentration of 10 nM to 2 μM for 180 seconds at a flow rate of […]. Then, dissociation reaction was assayed by washing with a buffer solution for 600 seconds. Binding parameters were analyzed using BIAevalution T100 software.

[2] = target: T1, hIgG (Homo sapiens, UniProt P01857); assay: ELISA of biotinylated IgG-binding peptide on plate-adsorbed hIgG; settings: peptide unmodified with cross-linking agent
T1 construct: purchased Chugai Pharmaceutical Co., Ltd
T1 sequence (P01857 1-328): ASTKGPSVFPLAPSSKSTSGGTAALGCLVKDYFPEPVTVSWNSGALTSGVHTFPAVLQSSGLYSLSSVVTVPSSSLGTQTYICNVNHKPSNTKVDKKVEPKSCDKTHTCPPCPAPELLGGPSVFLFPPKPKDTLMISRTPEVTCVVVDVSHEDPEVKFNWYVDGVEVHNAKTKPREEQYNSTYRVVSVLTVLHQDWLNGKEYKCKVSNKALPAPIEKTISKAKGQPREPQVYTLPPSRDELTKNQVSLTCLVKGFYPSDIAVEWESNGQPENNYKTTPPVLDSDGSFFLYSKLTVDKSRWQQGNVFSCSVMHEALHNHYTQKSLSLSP
Method: A 0.1 M NaHCO3 solution containing each protein (IgG (Chugai Pharmaceutical Co., Ltd.), IgA (Athens Research & Technology, Inc.), or bovine gelatin (Wako Pure Chemical Industries, Ltd.)) (50 ng (0.33 pmol)/μ1/well) was added to wells of a 96-well microplate (Nunc® MaxiSorp), and the plate was left overnight at room temperature to adsorb each protein onto the surface of the plate. After blocking with 0.5% BSA, a biotinylated IgG-binding peptide modified with DSG (molar ratio: 0, 1, 2, 5, or 10), prepared in the same way as in Example 2 was added to each well. After 1 hour, the reaction was terminated by the addition of 1 M Tris-HCl (pH 7.0) at 3 μL/well. SA-HRP (Vector Laboratories, Inc.) diluted 2000-fold with 0.5% BSA was added thereto at 50 μL/well and reacted at room temperature for 1 hour. Then, the plate was washed five times with 0.1% PBST. Then, a TMB solution (Wako Pure Chemical Industries, Ltd.) was used in the color development of HRP. After 5-minute chromogenic reaction, the absorbance at 450 nm was measured using an ELISA plate reader (model 680 microplate reader (Bio-Rad Laboratories, Inc.)).
The biotinylated IgG-binding peptide modified with DSG was added at a molar ratio of 2 to hIgG (50 ng) immobilized overnight at 4° C. with a 50 ng/50 μL solution. […] The binding was detected in the same way as in (A).

Sequence of human IgG (P01857 1-328): as above

Substance | decrease of affinity for human IgG as compared with Type I ([1]; R8K substitution versus peptide before substitution) [times] | ka [1] | kd [1] | binding to hIgG (ELISA) [2]
GDDCAYHKGELVWCTFH-NH2 [Type I(R8K)] | 10 | 1.25E+06 | 0.195 | Very weak binding
GDDCAYHK(DSS-OH)GELVWCTFH-NH2 [Type I(R8K)-DSS-OH] | – | 1.68E+05 | 0.06136 | –
GPDCAYHRGELVWCTFH-NH2 [Type I] | – | 1.57E+06 | 0.0144 | –
GDDCAYHK(DSG-OH)GELVWCTFH-NH2 [Type I(R8K)-DSG-OH] | – | 3.29E+05 | 0.1036 | –
